Data published in publication PMC6982022 (International Journal of Molecular Sciences, 2019).
Several values for one entry are separate records, joined by “and”; a condition that tells them apart may be missing. Equal entries are not always repeated. Entries after “also recorded” stand apart in the source; their conditions may differ.

What was measured:
[1] = tested on: male CD rats; assay: Rat mating trial (fertility); assay type: in vivo; details: for Conceptus, mean abnormal / Fertile/Mated / Conceptus, mean normal: 150 mg/kg/day oral days 0-34
Procedure: Eighteen adult male CD rats were divided into three groups of six rats each. One group of six CD rats was treated with vehicle (distilled water containing 0.9% benzyl alcohol) via oral gavage (5 mL/kg/day), and the second group (6 rats) was treated with NB-DGJ (in distilled water containing 0.9% benzyl alcohol) via oral gavage at 150 mg/kg/day (in approximately 5 mL/kg of water) daily for 35 consecutive days. The third group (6 rats) was treated with 15 mg/kg NB-DNJ in distilled water containing 0.9% benzyl alcohol) via oral gavage (in approximately 5 mL/kg of water) daily for 35 consecutive days (Figure S5).
(§1) Rats were weighed on day 0 (first day of dosing) and weekly thereafter. Dosages were adjusted based on the most recent body weight. Males were cohabited with untreated females (one male per two females) weekly at weeks 1 through 9 [38, 39]. Females were necropsied seven days after separation from males to determine the numbers of implantation sites. Individual male rats were bled from the tail vein at weeks 0, 1, 4, and 7 and serum was harvested by centrifugation. At week 11, the male rats were weighed, anesthetized, and exsanguinated. Sera were analyzed for inhibin B by ELISA (enzyme-linked immunosorbent assay), and rat follicle stimulating hormone (rFSH) and testosterone by radioimmunoassay. Testes, epididymides, ventral prostates, and seminal vesicles were excised and weighed. The left testis was homogenized, and spermatid head counts obtained.
(§2) Statistical analysis using the Student’s t-test was performed on body weights, paired testes weights, ventral prostrate weights, seminal vesicle weights, paired epididymal weights, spermatid head counts, percent motile and normal epididymal sperm. We used analysis of variance (ANOVA) for serum inhibin B, rFSH, and testosterone, since these measurements were repeated throughout the study period. The effect of NB-DNJ at 15 mg/kg/day dose in the rat model was studied following the same protocol as that for NB-DGJ.

[2] = tested on: adult male CD rats; assay: Parameters measured at necropsy at end of fertility trial (week 11); assay type: in vivo, rat
Description: as §1
Sperm were obtained from the left cauda epididymis and evaluated for sperm motility, as follows. The cauda epididymis was punctured with an 18-gauge needle and sperm expressed into the well of a culture slide. The sperm were diluted with capacitation buffer containing 0.1% BSA to obtain about 20–40 sperm per field as viewed in the inverted microscope. The number of motile and non-motile sperm was determined, and the percent of motile sperm were calculated. A smear of the diluted sperm was also prepared and used to assess sperm morphology under phase contrast. The percent of normal/abnormal sperm were calculated.
as §2

[3] = tested on: male CD rats; assay: Serum hormone levels during mating trial; assay type: in vivo, rat; details: 150 mg/kg/day; weeks 0, 1, 4 and 7; ANOVA
Description: as §1, §2

[4] = 150 mg/kg/day on days 0-34, week 11, n = 6

CCCCN1C[C@H](O)[C@@H](O)[C@@H](O)[C@H]1CO [NB-DGJ, N-butyldeoxygalactonojirimycin]
Treatment time after which fertility was blocked ([1]; 150 mg/kg/day oral): 35 days
Conceptus, mean abnormal ([1]; week of study 1): 0.3
Fertile/Mated ([1]; week of study 1): 6/6
Conceptus, mean normal ([1]; week of study 1, both females per male): 14
Conceptus, mean abnormal ([1]; week of study 2): 0.1
Conceptus, mean normal ([1]; week of study 2): 6
Fertile/Mated ([1]; week of study 2): 6/6
Conceptus, mean abnormal ([1]; week of study 3): 0
Conceptus, mean normal ([1]; week of study 3): 1
Fertile/Mated ([1]; week of study 3): 3/6
Conceptus, mean abnormal ([1]; week of study 4): 0/0
Conceptus, mean normal ([1]; week of study 4): 0/0
Fertile/Mated ([1]; week of study 4): 0/6
Conceptus, mean abnormal ([1]; week of study 5): 2
Fertile/Mated ([1]; week of study 5): 6/6
Conceptus, mean normal ([1]; week of study 5 (after termination of dosing)): 10
Conceptus, mean abnormal ([1]; week of study 6): 0.3
Conceptus, mean normal ([1]; week of study 6): 13
Fertile/Mated ([1]; week of study 6): 6/6
Conceptus, mean abnormal ([1]; week of study 7): 0.3
Conceptus, mean normal ([1]; week of study 7): 13
Fertile/Mated ([1]; week of study 7): 6/6
Conceptus, mean abnormal ([1]; week of study 8): 0.3
Conceptus, mean normal ([1]; week of study 8): 14
Fertile/Mated ([1]; week of study 8): 6/6
Conceptus, mean abnormal ([1]; week of study 9): 0.5
Conceptus, mean normal ([1]; week of study 9): 13
Fertile/Mated ([1]; week of study 9): 6/6
Return of fertility after termination of dosing ([1]; 150 mg/kg/day oral for 35 days): within one week
Reduction of numbers of normal conceptuses ([1]; 150 mg/kg/day oral, second week): 50%
Treated rats infertile ([1]; 150 mg/kg/day oral, week four): 100%
Treated rats rendered infertile ([1]; 150 mg/kg/day oral, week three): 50%
Effect on fertility (in words) ([1]; 150 mg/kg/day, daily single oral dose, 35 days): induced reversible infertility; also recorded: caused reversible infertility
Adverse effects in treated animals ([1]; daily dose of 150 mg/kg, 35 days): lack of adverse effects
Final Body Weight Week 11 (g ± SE) ([2]; 150 mg/kg/day on days 0-34, n = 6): 572 ± 17 g
Ventral prostate weight versus vehicle ([2]; 150 mg/kg/day on days 0-34, week 11, Student's t-test): No significant difference
Mean Epididymal Sperm Motility (%) [2, 4]: 60% and 60 ± 3 %
Mean Epididymal Sperm with Normal Morphology (% ± SE) [2, 4]: 72 ± 1 %
Mean Paired Epididymal Weight (g ± SE) [2, 4]: 1.64 ± 0.03 g
Mean Paired Testis Weight (g ± SE) [2, 4]: 3.80 ± 0.11 g
Mean Seminal Vesicle Weight with Coagulating Gland [2, 4]: 1.40 ± 0.11 g
Mean Spermatid Head Count/Testis [2, 4]: 123.59 ± 3.73 Cells × 10^6
Serum inhibin B versus control [3]: No significant differences
Serum rFSH versus control [3]: No significant differences
Serum testosterone versus control [3]: No significant differences
